The text below walks through data of patent US20130210054A1, “Amino Acid Copolymer Assay” (Momenta Pharmaceuticals, Inc., priority 2012, published 2013).

What all share (format): cell-based, Balb/c mice
Test [1] deals with CD4+ T cells. As to the kind of experiment: Cytokine levels in culture media of CD4+ T cells from GA-immunized mice after restimulation with antigen and APCs (multiplex). The following applies: for levels of Th2 cytokines induced: after a second round of stimulation, 20 μg antigen. The protocol:
Balb/c mice (Jackson Labs) were immunized with 250 μg/mL of GA (reference lot drug (RLD) or ovalbumin (OVA), each in saline, emulsified in complete Freund's adjuvant (CFA) on day 1. On day 11, the draining lymph nodes were harvested, single cell suspensions were made, and CD4+ T cells were enriched by negative selection immunomagnetic bead purification.
For ex vivo challenge, CD4+ T cells (1×10^6/ml) were re-stimulated with 20 μg/mL of the same antigen used to immunize the mice (RLD, GA, or OVA) in the presence of freshly isolated or frozen naïve mitomycin C-treated splenic APCs (1×10^7/ml) for 3-4 days, at which time, the culture media was replaced with fresh culture media supplemented with 20 ng/ml of IL-2. Cells were split and reseeded at 800,000 cells/mL in media containing 4 parts fresh media (RPMI/5% FBS/20 ng/mL IL-2) and 1 part recycled media from the previous culture. This cycle of changing the media and splitting the cells was repeated for 6 cycles. Cells were frozen and stored as a cell bank.
After cell propagation, the CD4+ T cells were restimulated once again with freshly isolated naïve mitomycin C-treated splenic APCs (1×10^7/ml) for 4 days and 20 μg of the respective antigen. Culture supernatants were collected 72 hours after the start of each restimulation for analysis.
Th1 (IL-2 and IL-12p40), Th2 (IL-4, IL-5 IL-6, IL-10, and IL-13) and Th17 (IL-17) cytokine levels (ng/ml) were measured using multiplex technology (Endogen Searchlight, Rockford, Ill.). A one-way ANOVA followed by Newman-Keuls multiple comparison test (significance level, p<0.05) for each individual measured cytokine was used for statistical analysis.

In test [2] the test system is GA-specific polarized Th2 cells. As to the kind of experiment: Th2 assay: cytokine secretion by GA-specific polarized Th2 cells with APCs and antigen, 9-plex MSD multiplex. On the procedure: Populations of Th2 cells and APC cells were reanimated in culture media (RPMI/5% FBS/20 ng/mL IL-2), added dropwise. Cells were pelleted at 400-800G before being resuspended in fresh culture media for use in the assay. For the assay, 150,000 APC cells were combined with a concentration of GA using serial dilution of the GA. The resulting concentration curve provided a range from 0-50 μg/mL GA. APC cells were incubated with the GA for about 10 minutes before the Th2 cells were added. The final volume for the assay was 0.2 mL. The set up for the Th2 assay is illustrated in FIG. 7.
More specifically, GA-specific polarized Th2 cells prepared according to Example 1 were cultured in vitro with varying concentrations of GA (reference standard commercial preparation, Copaxone® or glatiramoid (Sigma-Aldrich (COP-1)) in the presence of syngeneic, mitomycin-C-treated, naïve splenic APCs. Cells were cultured in 96-well plates in a final volume of 200 μl per well, with 50 μl of […] splenic APCs (150×10^3/50 μl) freshly isolated from naïve Balb/c mice, 50 μl of GA-specific polarized Th2 cells (50×10^3/50 μl) and 100 μl of culture media (complete RPMI-10 supplemented with 10% FBS) containing RLD or COP-1 at increasing concentrations of GA from 0 to 50 μg/ml. Conditioned culture media was collected 24 hours post stimulation for analysis by multiplex assay and ELISA. Th1 ([…], IL-2, IL-12p70, TNF-α, KC and IFN-γ) and Th2 (IL-4, IL-5, and IL-10) cytokine levels (pg/ml) were measured using the 9-plex mouse Th1/Th2 cytokine kit from Meso Scale Discovery (MSD) (Gaithersburg, Md.).

Test [3] shares this test system. As to the kind of experiment: GA-Th2 assay: IL-4 in culture media by ELISA. The following applies: 0 to 50 μg/ml antigen, 24 hours, sandwich ELISA. On the procedure:
Populations of Th2 cells and APC cells were reanimated in culture media (RPMI/5% FBS/20 ng/mL IL-2), added dropwise. Cells were pelleted at 400-800G before being resuspended in fresh culture media for use in the assay. […] The final volume for the assay was 0.2 mL. The set up for the Th2 assay is illustrated in FIG. 7.
Conditioned culture media was collected 24 hours post stimulation for analysis by multiplex assay and ELISA.
The response curve was fit to the four parameter logistic fit equation using nonlinear regression and the EC50 (μg/ml) was calculated. One-way ANOVA followed by Tukey's multiple comparison test (significance level, p<0.05) was used for statistical testing of the dataset for each plate.
IL-4 levels were determined by sandwich ELISA.

As for “L-glutamic acid polymer with L-alanine, L-lysine and L-tyrosine, acetate (salt) [GA]”, in test [1] (supernatant 72 hours), the “levels of Th2 cytokines induced” value was “high levels”. The “levels of Th2 cytokines (IL-5, IL-6, IL-10, IL-13) induced” value in test [1] (after the first round of stimulation, 20 μg/mL antigen, supernatant 72 hours) is “low but detectable levels”. Further, the “Th17 cytokine IL-17 and Th1 cytokine IL-12p40” value in test [1] (with the second round of stimulation) is listed as “selectively down-regulated”.

For “Poly(Ala, Glu, Lys, Tyr) 6:2:5:1 hydrobromide [COP-1]”, the “Th2 cytokines (IL-4, IL-5, IL-10) secreted” value in test [2] (0 to 50 μg/ml antigen, 24 hours) is “dose-dependent increase”. In test [2] (0 to 50 μg/ml, 24 hours), the “levels of IL-2 and TNF-α” value was “quantifiable and exhibited dose dependency”; the “response versus RLD in secretion of the Th2 cytokines” value is on record as “readily distinguishable from RLD”. Further, the “levels of secreted Th1 cytokines (IL-1β, KC, IFN-γ)” value in test [2] (0 to 50 μg/ml, 24 hours, not dose dependent) was “very low (below limits of quantitation)”. The IL-12 secretion result in test [2] (0 to 50 μg/ml, 24 hours, quantitated) is recorded as “not dose dependent”. The “doses at which discriminated from RLD in levels of IL-2 and TNF-α secreted” value in test [2] (24 hours) was above 30 µg/mL. In addition, the “levels of Th2 cytokines (IL-4, IL-5, IL-10, IL-13), IL-2, IL-6 and TNF-α compared to restimulation with GA” value in test [2] (restimulated in the presence of APCs) is reported as “significantly decreased levels”.

For the molecule “MOG (35-55): encephalitogenic neuroantigen peptide, Peptides International (MEVGWYRSPFSRVVHLYRNGK; UniProt Q61885 63-83, looked up, fragment)”, the “IL-4 in the culture media (cross-reactivity)” value (“IL-4 in the culture media” below) in test [3] is listed as “no IL-4 was detected”.

As to “MBP (87-89): myelin basic protein peptide, Peptides International Catalog No. PMB-3973-PI (NRPHLIRLFSRDA; UniProt P04370 87-99, looked up, fragment)”, the “IL-4 in the culture media” value in test [3] is “no IL-4 was detected”.

In the case of “PLP (139-151): encephalitogenic neuroantigen peptide, Peptides International (CHCLGKWLGHPDK; UniProt P60202 139-151, looked up, fragment)”, the “IL-4 in the culture media” value in test [3] is “no IL-4 was detected”.

B1: murine MBP: murine myelin basic protein, EMD Biosciences Catalog No. 124027 (protein, UniProt P04370 1-250, looked up)
Myelin basic protein: MGNHSGKRELSAEKASKDGEIHRGEAGKKRSVGKLSQTASEDSDVFGEADAIQNNGTSAEDTAVTDSKHTADPKNNWQGAHPADPGNRPHLIRLFSRDAPGREDNTFKDRPSESDELQTIQEDPTAASGGLDVMASQKRPSQRSKYLATASTMDHARHGFLPRHRDTGILDSIGRFFSGDRGAPKRGSGKDSHTRTTHYGSLPQKSQHGRTQDENPVVHFFKNIVTPRTPPPSQGKGGRDSRSGSPMARR
For B1, in test [3], the “IL-4 in the culture media” value is “no IL-4 was detected”.

B2: ovalbumin: ovalbumin control antigen (protein, UniProt P01012 2-386, looked up)
Ovalbumin: GSIGAASMEFCFDVFKELKVHHANENIFYCPIAIMSALAMVYLGAKDSTRTQINKVVRFDKLPGFGDSIEAQCGTSVNVHSSLRDILNQITKPNDVYSFSLASRLYAEERYPILPEYLQCVKELYRGGLEPINFQTAADQARELINSWVESQTNGIIRNVLQPSSVDSQTAMVLVNAIVFKGLWEKAFKDEDTQAMPFRVTEQESKPVQMMYQIGLFRVASMASEKMKILELPFASGTMSMLVLLPDEVSGLEQLESIINFEKLTEWTSSNVMEERKIKVYLPRMKMEEKYNLTSVLMAMGITDVFSSSANLSGISSAESLKISQAVHAAHAEINEAGREVVGSAEAGVDAASVSEEFRADHPFLFCIKHIATNAVLFFGRCVSP
As to B2, the “levels of Th2 cytokines induced” value in test [1] (supernatant 72 hours) is listed as “did not show a corresponding increase”.
